Results reported in article PMC7997032, “Organic synthesis and anti-influenza A virus activity of cyclobakuchiols A, B, C, and D” (PLoS ONE, 2021).
Several values for one entry are separate records, joined by “and”; a condition that tells them apart may be missing. Equal entries are not always repeated.

System: myxovirus-resistant protein 1 (Mx1)
Assay: RT-qPCR of Mx1 mRNA in MDCK cells with or without A/PR/8/34 virus
Type: cell-based, canine
Details: for MDCK Mx1 mRNA, ave / MDCK Mx1 mRNA, individual replicates: 12.5uM, relative to virus - DMSO; for MDCK Mx1 mRNA, ave: ave of #1-3 exp; for MDCK Mx1 mRNA, individual replicates: replicates 1-3 of #1, #2, #3 exp

| Compound | mRNA level of Mx1 compared with 4 or 5-treatment | MDCK Mx1 mRNA, ave (virus +) | MDCK Mx1 mRNA, ave (virus -) | also measured |
| --- | --- | --- | --- | --- |
| C=C[C@@](C)(/C=C/c1ccc(O)cc1)CCC=C(C)C [(+)-(S)-bakuchiol, reference compound] | significantly reduced | 1.1334 | 0.4419 | virus-induced upregulation of Mx1 mRNA: significantly reduced; MDCK Mx1 mRNA, individual replicates (virus +): 0.2413 and 1.8944 and 2.953 and 2.445 and 0.9019 and 0.5846 and 0.6126 and 0.2532 and 0.315; MDCK Mx1 mRNA, individual replicates (virus -): 0.2755 and 0.4409 and 0.4188 and 0.4047 and 0.5819 and 0.4639 and 0.4949 and 0.4956 and 0.401 |
| C=C[C@]1(C)CCC(C(=C)C)C(c2ccc(O)cc2)C1 (stereo in doubt) [cyclobakuchiol A] | significantly reduced | 1.207 | 0.4356 | MDCK Mx1 mRNA, individual replicates (virus +, listed as Cyclobakuchiol A): 0.2527 and 2.463 and 2.156 and 2.352 and 0.9916 and 0.8981 and 0.9472 and 0.4146 and 0.3917; MDCK Mx1 mRNA, individual replicates (virus -, listed as Cyclobakuchiol A): 0.3455 and 0.4424 and 0.367 and 0.3469 and 0.4512 and 0.4646 and 0.7257 and 0.3943 and 0.3827 |
| C=C[C@]1(C)CCC(C(=C)C)C(c2ccc(O)cc2)C1 (stereo in doubt) [cyclobakuchiol B] |  | 2.462 | 0.5972 | MDCK Mx1 mRNA, individual replicates (virus +, listed as Cyclobakuchiol B): 0.2997 and 4.213 and 3.979 and 5.553 and 2.777 and 2.185 and 2.395 and 0.2998 and 0.4603; MDCK Mx1 mRNA, individual replicates (virus -, listed as Cyclobakuchiol B): 0.4518 and 0.5333 and 0.4418 and 0.5841 and 1.295 and 0.3791 and 0.8214 and 0.4024 and 0.4657 |
| C=C[C@]1(C)CCC(C(C)(C)O)C(c2ccc(O)cc2)C1 (stereo in doubt) [cyclobakuchiol C] |  | 4.111 | 1.049 | MDCK Mx1 mRNA, individual replicates (virus +, listed as Cyclobakuchiol C): 0.595 and 6.605 and 6.273 and 8.3748 and 5.332 and 3.973 and 4.3945 and 0.841 and 0.6149; MDCK Mx1 mRNA, individual replicates (virus -, listed as Cyclobakuchiol C): 0.8391 and 0.8734 and 1.094 and 0.9606 and 1.231 and 1.129 and 1.257 and 1.188 and 0.8673 |
| C=C[C@]1(C)CCC(C(C)(C)O)C(c2ccc(O)cc2)C1 (stereo in doubt) [cyclobakuchiol D] |  | 4.805 | 1.431 | MDCK Mx1 mRNA, individual replicates (virus +, listed as Cyclobakuchiol D): 0.823 and 8.732 and 6.853 and 11.4737 and 5.421 and 3.904 and 4.71 and 0.7737 and 0.5563; MDCK Mx1 mRNA, individual replicates (virus -, listed as Cyclobakuchiol D): 1.033 and 1.181 and 1.602 and 1.158 and 2.885 and 1.4873 and 1.3014 and 1.1198 and 1.11 |
